Source: ChEMBL document CHEMBL1667810, “New positive allosteric modulators of the metabotropic glutamate receptor 2 (mGluR2): identification and synthesis of N-propyl-8-chloro-6-substituted isoquinolones” (Bioorg Med Chem Lett, 2011)

Legend:
Format in all cases: functional, cell-based
[1] = molecular target: T1, Metabotropic glutamate receptor 2 (Homo sapiens, UniProt Q14416); experiment: Agonist activity at human mGluR2 expressed in CHO cells at by [S35]GTPgammaS binding assay
Target sequence in this assay (Q14416 whole entry): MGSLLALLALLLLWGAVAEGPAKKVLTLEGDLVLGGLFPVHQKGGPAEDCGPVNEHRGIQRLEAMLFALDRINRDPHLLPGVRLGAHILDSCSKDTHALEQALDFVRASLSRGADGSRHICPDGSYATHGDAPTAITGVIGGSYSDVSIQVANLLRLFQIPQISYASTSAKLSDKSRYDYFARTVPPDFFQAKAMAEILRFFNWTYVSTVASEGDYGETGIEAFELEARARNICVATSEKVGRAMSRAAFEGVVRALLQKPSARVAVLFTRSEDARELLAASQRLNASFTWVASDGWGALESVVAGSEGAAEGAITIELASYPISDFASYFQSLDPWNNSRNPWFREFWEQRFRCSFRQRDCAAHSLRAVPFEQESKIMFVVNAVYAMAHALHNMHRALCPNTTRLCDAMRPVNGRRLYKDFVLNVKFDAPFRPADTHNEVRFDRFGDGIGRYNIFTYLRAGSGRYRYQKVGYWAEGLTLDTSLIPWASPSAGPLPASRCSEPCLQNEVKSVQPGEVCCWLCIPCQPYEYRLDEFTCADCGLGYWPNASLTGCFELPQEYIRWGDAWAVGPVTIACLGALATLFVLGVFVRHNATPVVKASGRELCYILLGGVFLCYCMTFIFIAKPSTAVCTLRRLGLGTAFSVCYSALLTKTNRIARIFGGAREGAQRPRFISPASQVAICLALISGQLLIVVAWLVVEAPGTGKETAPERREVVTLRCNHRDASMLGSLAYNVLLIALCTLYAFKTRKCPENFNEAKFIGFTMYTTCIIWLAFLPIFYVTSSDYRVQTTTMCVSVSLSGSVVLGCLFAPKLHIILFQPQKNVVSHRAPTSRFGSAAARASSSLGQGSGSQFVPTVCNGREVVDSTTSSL

[2] = molecular target: T1, Metabotropic glutamate receptor 2; experiment: Agonist activity at human mGluR2 expressed in CHO cells at by [S35]GTPgammaS binding assay relative to glutamate
Target sequence in this assay (Q14416 19-872 limits assumed): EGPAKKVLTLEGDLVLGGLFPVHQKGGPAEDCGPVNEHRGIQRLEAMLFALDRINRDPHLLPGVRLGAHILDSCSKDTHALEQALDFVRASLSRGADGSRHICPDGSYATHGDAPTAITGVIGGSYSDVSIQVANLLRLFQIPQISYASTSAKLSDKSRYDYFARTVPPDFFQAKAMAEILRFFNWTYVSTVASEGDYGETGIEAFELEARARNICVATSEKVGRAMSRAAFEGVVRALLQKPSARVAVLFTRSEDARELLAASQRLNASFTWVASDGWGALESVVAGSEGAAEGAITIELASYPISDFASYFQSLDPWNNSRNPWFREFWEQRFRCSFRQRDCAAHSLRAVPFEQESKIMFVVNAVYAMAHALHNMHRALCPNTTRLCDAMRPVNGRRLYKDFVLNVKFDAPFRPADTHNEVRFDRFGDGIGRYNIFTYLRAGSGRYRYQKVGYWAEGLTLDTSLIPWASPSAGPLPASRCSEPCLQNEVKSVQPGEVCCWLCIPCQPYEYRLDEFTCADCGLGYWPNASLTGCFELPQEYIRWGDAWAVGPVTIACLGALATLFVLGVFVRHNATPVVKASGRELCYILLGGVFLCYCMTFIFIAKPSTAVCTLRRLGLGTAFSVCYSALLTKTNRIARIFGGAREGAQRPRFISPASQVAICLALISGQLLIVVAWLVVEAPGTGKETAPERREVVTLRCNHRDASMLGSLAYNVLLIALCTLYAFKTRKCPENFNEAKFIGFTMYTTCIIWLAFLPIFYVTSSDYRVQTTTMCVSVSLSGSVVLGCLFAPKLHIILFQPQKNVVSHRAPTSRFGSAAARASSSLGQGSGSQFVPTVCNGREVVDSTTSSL

[3] = molecular target: T1, Metabotropic glutamate receptor 2; experiment: Agonist activity at human mGluR2 expressed in HEK293 cells assessed as induction of calcium release by FLIPR assay
Target sequence in this assay (Q14416 whole entry): as the sequence (Q14416 whole entry) above

Row | EC50 [1] | Emax [2] | EC50 [3] | Structure (SMILES)
1 | 501 nM | 92% |  | CCCn1ccc2cc(-c3ccc(Oc4ccccc4)nc3)cc(Cl)c2c1=O
2 | 7940 nM | 81% |  | CCCn1ccc2cc(-c3cccnc3)ccc2c1=O
3 | 2510 nM | 126% |  | CCCn1ccc2cc(OCc3cccnc3)cc(Cl)c2c1=O
4 | 631 nM | 75% |  | CCCn1ccc2cc(OCCCc3cccnc3)cc(Cl)c2c1=O
5 | > 50100 nM |  |  | CCCn1ccc2cc(-c3cccnc3)cc(C#N)c2c1=O
6 | 316 nM | 120% |  | CCCn1ccc2cc(-c3ccc(OCc4cccnc4)nc3)cc(Cl)c2c1=O
7 | 316 nM | 136% |  | CCCn1ccc2cc(-c3ccc(OC)cc3)cc(Cl)c2c1=O
8 | 1260 nM | 73% |  | CCCn1ccc2cc(-c3ccncc3)cc(Cl)c2c1=O
9 | 398 nM | 75% |  | CCCn1ccc2cc(-c3cnc(OC)c(F)c3)cc(Cl)c2c1=O
10 | 5010 nM | 85% |  | CCCn1ccc2cc(-c3ccc(N(C)C)nc3)cc(Cl)c2c1=O
11 | 5010 nM | 106% |  | CCCn1ccc2cc(N3CCC(O)CC3)cc(Cl)c2c1=O
12 | 794 nM | 121% |  | CCCn1ccc2cc(-c3ccc(OC)nc3)cc(Cl)c2c1=O
13 | 794 nM | 47% |  | CCCn1ccc2cc(OCCc3cccnc3)cc(Cl)c2c1=O
14 | 251 nM | 170% |  | CCCn1ccc2cc(-c3ccc(OCc4ccc(C(F)(F)F)nc4)cc3)cc(Cl)c2c1=O
15 | 3160 nM | 82% |  | CCCn1ccc2cc(NCc3cccnc3)cc(Cl)c2c1=O
16 | 1580 nM | 65% |  | CCCn1ccc2cc(-c3cn[nH]c3)cc(Cl)c2c1=O
17 | 631 nM | 103% |  | CCCn1ccc2cc(-c3ccc(OCCc4ccccc4)nc3)cc(Cl)c2c1=O
18 | 3980 nM | 28% |  | CCCn1ccc2cc(-c3cncnc3)cc(Cl)c2c1=O
19 | > 10000 nM | 66% |  | CCCn1ccc2cc(N3CCOCC3)ccc2c1=O
20 | 794 nM | 84% |  | CCCn1ccc2cc(-c3ccc(N4CCOCC4)nc3)cc(Cl)c2c1=O
21 | 1260 nM | 64% |  | CCCn1ccc2cc(-c3ccc(OCc4cccnc4)cc3)cc(Cl)c2c1=O
22 | 398 nM | 81% |  | CCCn1ccc2cc(-c3ccc(OCc4ccc(Cl)nc4)cc3)cc(Cl)c2c1=O
23 | 158 nM | 90% |  | CCCn1ccc2cc(-c3ccc(Oc4ccncc4)cc3)cc(Cl)c2c1=O
24 | 2000 nM | 88% |  | CCCn1ccc2cc(-c3ccc(Oc4ccccc4)cc3)cc(Cl)c2c1=O
25 | 5010 nM | 104% | 2510 nM | CCCn1ccc2cc(N3CCOCC3)cc(Cl)c2c1=O
26 | 631 nM | 83% |  | CCCn1ccc2cc(-c3cccnc3)cc(Cl)c2c1=O

Row | Structure (SMILES) | EC50 [1] | Emax [2] | EC50 [3]
27 | CCCn1ccc2cc(N3CCNCC3)cc(Cl)c2c1=O | > 10000 nM | 47% | 
